Data from ChEMBL document CHEMBL3044817, “Antifeedant and mosquitocidal compounds from Delphinium x cultorum cv. Magic fountains flowers” (J Agric Food Chem, 2000).
Active and inactive are the calls of the source. No cut-off for these calls is given here.

System: Helicoverpa zea
Assay: Antifeedant activity against Helicoverpa zea (corn earworm) at 250 mg/ml at 28 degC day/24 degC night measured after 6 days
Type: functional, organism-based

| SMILES | Activity |
| --- | --- |
| O=C(O)c1ccc(O)cc1 | inactive |
| Oc1ccc(C(O)c2ccc(O)cc2)cc1 | inactive |
